Toxic doses and inconclusive results are not listed. No stated cut-off is given here; in the data, active means T/C of 150% or more; inactive means T/C below 125%.
Test system: L1210 leukemia ip in BDF1 mice, survival T/C
Test: NCI In Vivo Anticancer Drug Screen. Data for tumor model L1210 Leukemia (intraperitoneal) in B6D2F1 (BDF1) mice
Settings: endpoint: mean survival time, higher = longer survival
Outline: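 Transplantable tumor model; survival measured in treated vs vehicle control mice. Value = treated/control.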

[1] = dose: 100.0 mg/kg/injection, schedule: Q01DX001 (ip), vehicle: saline
[2] = dose: 200.0 mg/kg/injection, schedule: Q01DX001 (ip), vehicle: saline
[3] = dose: 100.0 mg/kg/injection, schedule: Q04DX003 (ip), vehicle: Klucel (hydroxypropylcellulose) (HPC)
[4] = dose: 200.0 mg/kg/injection, schedule: Q04DX003 (ip), vehicle: Klucel (hydroxypropylcellulose) (HPC)
[5] = dose: 400.0 mg/kg/injection, schedule: Q04DX003 (ip), vehicle: Klucel (hydroxypropylcellulose) (HPC)
[6] = dose: 100.0 mg/kg/injection, schedule: Q01DX001 (ip), vehicle: Klucel (hydroxypropylcellulose) (HPC)
[7] = dose: 200.0 mg/kg/injection, schedule: Q01DX001 (ip), vehicle: Klucel (hydroxypropylcellulose) (HPC)
[8] = dose: 400.0 mg/kg/injection, schedule: Q01DX001 (ip), vehicle: Klucel (hydroxypropylcellulose) (HPC)
[9] = dose: 75.0 mg/kg/injection, schedule: Q01DX001 (ip), vehicle: saline
[10] = dose: 50.0 mg/kg/injection, schedule: Q01DX001 (ip), vehicle: carboxymethylcellulose (CMC)
[11] = dose: 100.0 mg/kg/injection, schedule: Q01DX001 (ip), vehicle: carboxymethylcellulose (CMC)
[12] = dose: 400.0 mg/kg/injection, schedule: Q01DX001 (ip), vehicle: saline
[13] = dose: 150.0 mg/kg/injection, schedule: Q01DX001 (ip), vehicle: saline
[14] = dose: 100.0 mg/kg/injection, schedule: Q01DX009 (ip), vehicle: saline
[15] = dose: 100.0 mg/kg/injection, schedule: Q04DX002 (ip), vehicle: saline
[16] = dose: 200.0 mg/kg/injection, schedule: Q04DX002 (ip), vehicle: saline
[17] = dose: 400.0 mg/kg/injection, schedule: Q04DX002 (ip), vehicle: saline

Measured: T/C

O=[N+]([O-])c1ccc(Oc2ccc(Cl)cc2Cl)c([N+](=O)[O-])c1
inactive: dose: 100.0 mg/kg/injection, schedule: Q01DX001 (ip), vehicle: saline with Tween-80 103 % of control | dose: 100.0 mg/kg/injection, schedule: Q04DX003 (ip), vehicle: saline with Tween-80 105 % of control | dose: 200.0 mg/kg/injection, schedule: Q01DX001 (ip), vehicle: saline with Tween-80 94 % of control | dose: 200.0 mg/kg/injection, schedule: Q04DX003 (ip), vehicle: saline with Tween-80 102 % of control | dose: 222.0 mg/kg/injection, schedule: Q01DX Z (ip), vehicle: methylcellulose (MC) 100 % of control | dose: 333.0 mg/kg/injection, schedule: Q01DX Z (ip), vehicle: methylcellulose (MC) 92 % of control | dose: 400.0 mg/kg/injection, schedule: Q01DX001 (ip), vehicle: saline with Tween-80 97 % of control | dose: 400.0 mg/kg/injection, schedule: Q04DX003 (ip), vehicle: saline with Tween-80 99 % of control | dose: 500.0 mg/kg/injection, schedule: Q01DX Z (ip), vehicle: methylcellulose (MC) 95 % of control

CCCCNc1cc(Nc2ccc(Br)cc2)nc(N)n1
inactive: [1] 102 % of control | [2] 98 % of control

C(=Nc1ccc2c(c1)Cc1ccccc1-2)c1ccnc2ccccc12
inactive: dose: 100.0 mg/kg/injection, schedule: Q01DX009 (ip), vehicle: Klucel (hydroxypropylcellulose) (HPC) 97 % of control | [3] 92 % of control | dose: 200.0 mg/kg/injection, schedule: Q01DX009 (ip), vehicle: Klucel (hydroxypropylcellulose) (HPC) 100 % of control | [4] 90 % of control | dose: 400.0 mg/kg/injection, schedule: Q01DX009 (ip), vehicle: Klucel (hydroxypropylcellulose) (HPC) 97 % of control | [5] 94 % of control

O=CC(O)C(O)C(O)CO (centres undefined) (tested in a mixture with another compound)
inactive: [6] 94 % of control | [7] 88 % of control | [8] 88 % of control

C1CSCS1
inactive: dose: 12.5 mg/kg/injection, schedule: Q04DX002 (ip), vehicle: saline with Tween-80 103 % of control | dose: 25.0 mg/kg/injection, schedule: Q04DX002 (ip), vehicle: saline with Tween-80 106 % of control | dose: 50.0 mg/kg/injection, schedule: Q04DX002 (ip), vehicle: saline with Tween-80 106 % of control

O=P(O)(c1cc(Cl)cc(Cl)c1)c1cc(Cl)cc(Cl)c1
inactive: dose: 18.8 mg/kg/injection, schedule: Q01DX001 (ip), vehicle: saline 96 % of control | dose: 37.5 mg/kg/injection, schedule: Q01DX001 (ip), vehicle: saline 96 % of control | [9] 96 % of control

O=C(CCCC(=O)N/N=C/c1cccc(Br)c1)N/N=C\c1cccc(Br)c1
inactive: [10] 90 % of control | [11] 88 % of control

Cc1cc(N)c(C(=O)NN)cc1C
inactive: [1] 96 % of control | [2] 93 % of control | [12] 113 % of control

O=C1OC(c2cccc(Cl)c2)=N/C1=C\c1cccc([N+](=O)[O-])c1
inactive: dose: 100.0 mg/kg/injection, schedule: Q04DX002 (ip), vehicle: Klucel (hydroxypropylcellulose) (HPC) 103 % of control | dose: 200.0 mg/kg/injection, schedule: Q04DX002 (ip), vehicle: Klucel (hydroxypropylcellulose) (HPC) 100 % of control | dose: 400.0 mg/kg/injection, schedule: Q04DX002 (ip), vehicle: Klucel (hydroxypropylcellulose) (HPC) 103 % of control

COc1ccc(CC[n+]2cccc(C(C)=O)c2)cc1OC
inactive: [9] 103 % of control | [13] 106 % of control | dose: 300.0 mg/kg/injection, schedule: Q01DX001 (ip), vehicle: saline 113 % of control

O=c1[nH]nnc2ccccc12
inactive: dose: 50.0 mg/kg/injection, schedule: Q01DX009 (ip), vehicle: saline 90 % of control | [14] 90 % of control | dose: 100.0 mg/kg/injection, schedule: Q04DX003 (ip), vehicle: alcohol 98 % of control | dose: 200.0 mg/kg/injection, schedule: Q04DX003 (ip), vehicle: alcohol 100 % of control

CCOC(=O)c1cccc2ccc[n+](C)c12
inactive: dose: 37.5 mg/kg/injection, schedule: Q04DX003 (ip), vehicle: saline 91 % of control | [9] 97 % of control | dose: 75.0 mg/kg/injection, schedule: Q04DX003 (ip), vehicle: saline 91 % of control | [13] 97 % of control | dose: 150.0 mg/kg/injection, schedule: Q04DX003 (ip), vehicle: saline 95 % of control

CC(CO)CCCC(C)C1C(O)CC2C3CCC4CC(O)CCC4(C)C3CCC21C (centres undefined)
inactive: [6] 88 % of control | [7] 88 % of control | [8] 91 % of control

O=CNC(CSC(c1ccccc1)c1ccccc1)C(=O)O (centres undefined)
inactive: dose: 40.0 mg/kg/injection, schedule: Q01DX009 (ip), vehicle: Klucel (hydroxypropylcellulose) (HPC) 108 % of control | dose: 75.0 mg/kg/injection, schedule: Q01DX001 (ip), vehicle: Klucel (hydroxypropylcellulose) (HPC) 86 % of control | dose: 75.0 mg/kg/injection, schedule: Q01DX009 (ip), vehicle: Klucel (hydroxypropylcellulose) (HPC) 105 % of control | dose: 150.0 mg/kg/injection, schedule: Q01DX001 (ip), vehicle: Klucel (hydroxypropylcellulose) (HPC) 93 % of control | dose: 150.0 mg/kg/injection, schedule: Q01DX009 (ip), vehicle: Klucel (hydroxypropylcellulose) (HPC) 103 % of control

Cc1nn(C2CC(O)C(O)C(CO)O2)c(=O)[nH]c1=O (centres undefined)
inactive: dose: 50.0 mg/kg/injection, schedule: Q01DX001 (ip), vehicle: saline 93 % of control | [1] 96 % of control | [14] 92 % of control | [2] 104 % of control | dose: 200.0 mg/kg/injection, schedule: Q01DX009 (ip), vehicle: saline 95 % of control | [12] 98 % of control | dose: 400.0 mg/kg/injection, schedule: Q01DX009 (ip), vehicle: saline 98 % of control

COc1ccc(C[n+]2cccc(NC(=O)COc3ccc(Cl)c(Cl)c3)c2)cc1
inactive: [3] 97 % of control

O=S(=O)(Nc1cc(C(F)(F)F)ccc1Cl)c1ccc(Cl)cc1
inactive: [15] 90 % of control | [16] 106 % of control | [17] 97 % of control

Nc1nc2ncnc(N)c2nc1-c1ccc(N(CCCl)CCCl)cc1
inactive: [1] 98 % of control | [2] 95 % of control | [12] 102 % of control

CCOC(=O)CCN(C(=O)OCC)C(COCc1ccccc1)C(=O)OCC (centres undefined)
inactive: [1] 104 % of control | [2] 104 % of control | [12] 98 % of control

Cc1cc(N(CCCl)CCCl)ccc1CN1CCCN(Cc2ccc(N(CCCl)CCCl)cc2C)C1c1ccccc1O
inactive: [10] 106 % of control | [11] 103 % of control | [3] 117 % of control | dose: 200.0 mg/kg/injection, schedule: Q01DX001 (ip), vehicle: carboxymethylcellulose (CMC) 103 % of control | [4] 110 % of control | dose: 400.0 mg/kg/injection, schedule: Q01DX001 (ip), vehicle: carboxymethylcellulose (CMC) 103 % of control | [5] 122 % of control

CC(=O)OCC1CCC1
inactive: [1] 93 % of control | [15] 105 % of control | [2] 91 % of control | [16] 118 % of control | [12] 90 % of control | [17] 96 % of control
